Measurements: patent US5942663A, “Biocidal proteins” (Zeneca Limited, priority 1991, dated 1999)
Read-outs that look alike come from different tables or passages of the source. No end group written: not given here.

Columns and labels:
[1] = system: Fusarium culmorum; assay: Stability of the antifungal activity of the Mj-AMPs; format: cell-based
Method: Antifungal activity was measured by microspectrophotometry as previously described (Broekaert, WF et al; 1990; FEMS Microbiol Lett, 69, 55-60). Routinely, tests were performed with 20 μl of a (filter-sterilized) test solution and 80 μl of a fungal spore suspension (2×10^4 spores/ml) in half strength Potato Dextrose Broth (Difco). Control microcultures contained 20 μl of (sterile) distilled water and 80 μl of the fungal spore suspension. Unless otherwise stated the test organism was Fusarium culmorum and incubation was done at 25° C. for 48 hours. Percent growth inhibition is defined as 100 times the ratio of the corrected absorbance of the control microculture minus the corrected absorbance of the test microculture over the corrected absorbance at 595 nm of the control microculture. The corrected absorbance values equal the absorbance at 595 nm of the culture measured after 48 hours minus the absorbance at 595 nm measured after 30 min. Values of growth inhibition lower than 10% are not indicated on the chromatograms.
Table 1 summarises the results of further testing of the stability of the antifungal activity of the Mj-AMPs. Tests for antifungal activity were performed with 20 μl samples diluted five-fold with growth medium containing Fusarium culmorum spores (2×10^4 spores/ml), according to the assay method given in Example 2. Control samples contained either Mj-AMP1 at 500 μg/ml or Mj-AMP2 at 100 μg/ml in 10 mM sodium phosphate buffer (pH 7). Reduction was done by addition of DTT at 2.5 mM followed by incubation at 37° C. for 2 hours. pH stability was tested in the following buffers: 20 mM glycine-HCl (pH 2 and 3); 20 mM diethanolamine-HCl (pH 10); and 20 mM glycine-NaOH (pH 11). After 1 hour of incubation in the appropriate buffers the samples were dialyzed for 16 hours against 10 mm sodium phosphate buffer (pH 7). For digestions, proteases were added at 100 μg/ml and incubated at 37° C. for 16 hours.

[2] = system: Botrytis cinerea; format: cell-based; settings: B cinerea, 48 hours of incubation
[3] = system: Colletotrichum lindemuthianum; format: cell-based; settings: C lindemuthianum
[4] = system: Fusarium culmorum; format: cell-based; settings: F culmorum, 48 hours of incubation
[5] = system: Fusarium oxysporum f.sp. pisi; format: cell-based; settings: 48 hours of incubation
[6] = system: Nectria haematococca; format: cell-based; settings: N haematococca, 48 hours of incubation
[7] = system: Pyricularia oryzae; format: cell-based
[8] = system: Venturia inaequalis; format: cell-based; settings: V inaequalis, 10 days of incubation
[9] = system: Cercospora beticola; assay: Foliar diseases in vivo test, protectant foliar spray; settings: C beticola on sugarbeet, foliar spray 100 μg/ml
Method: The plants were grown in John Innes Potting Compost (No 1 or 2) in 4 cm diameter mini-pots. The protein preparation was formulated immediately prior to use by dissolving in sterile deionised water and diluting to the appropriate concentration. It is assumed that the protein extract contains approximately 1% active ingredient. A pure sample of Mj-AMP1 was similarly prepared. The formulations were applied to the plants as a foliar spray. The spray was applied to maximum discrete droplet retention. Tween 20, to give a final concentration of 0.05%, was added when the spray was applied to cereals. The protein preparation was applied to the foliage (by spraying) one or two days before the plant was inoculated with the disease (protectant application). […] After inoculation, the plants were put into an appropriate environment to allow infection to proceed and then incubated until the disease was ready for assessment. […]
Results are shown in Table 3 for the three fungal pathogens: Septoria nodorum (Fungi Imperfecti) tested on wheat, Plasmopara viticola (Phycomycete) tested on grapevine, and Cercospora beticola tested on sugarbeet. The disease control was recorded by the following grading: 4=no disease; 3=trace-5% of disease on untreated plants; 2=6-25% of disease on untreated plants; 1=26-60% of disease on untreated plants; 0=61-100% of disease on untreated plants.

[10] = system: Saccharomyces cerevisiae; assay: Inhibitory activity against yeast; format: cell-based; design: key: +++:complete inhibition; +:some inhibition; -:no inhibition
Method: The inhibitory activity of Mj-AMPs against yeast, Saccharomyces cerevisiae was tested. The results shown in Table 5 indicate that Mj-AMPs do inhibit the growth of yeast at concentrations of 500 μg/ml or above.

[11] = system: Bacillus megaterium; assay: Antibacterial activity in vitro test; format: cell-based; settings: B megaterium, 48 hours
Method: (§1) The antibacterial activity of the Mj-AMPs was tested against a range of gram-positive and gram-negative bacteria: Bacillus megaterium, Sarcina lutea, Escherichia coli and Erwinia carotovora. β-purothionin and UDA were also tested for comparison (see Example 7). Tests were performed in soft agarose medium containing 1% tryptone and, with or without 1 mM CaCl2 and 50 mM KCl. Absorbance, 595 nm, of the culture was measured after 48 hours.

[12] = system: Erwinia carotovora; assay: Antibacterial activity in vitro test; format: cell-based; settings: E carotovora, 48 hours
Method: as §1

[13] = system: Escherichia coli; assay: Antibacterial activity in vitro test; format: cell-based; settings: E coli, 48 hours
Method: as §1

[14] = system: Sarcina lutea; assay: Antibacterial activity in vitro test; format: cell-based; settings: S lutea, 48 hours
Method: as §1

[15] = MEDIUM +Ca/K (1 mM CaCl2 and 50 mM KCl)

## Mj-AMP1: antimicrobial protein from Mirabilis jalapa seeds, dimer of two 4 kDa subunits, 37 residues, SEQ ID NO:1 (QCIGNGGRCNENVGPPYCCSGFCLRQPGQGYGYCKNR; cysteine pairing not given here; also: homodimer)
[1]; 80° C., 10 min
  Relative antifungal activity (shown as % of control activity): 100 % of control activity
[1]; 90° C., 10 min
  Relative antifungal activity (shown as % of control activity): 100 % of control activity
[1]; 100° C., 10 min
  Relative antifungal activity (shown as % of control activity): 100 % of control activity
[1]; Chymotrypsin digestion, 100 μg/ml, 37° C., 16 hours
  Relative antifungal activity (shown as % of control activity): 12 % of control activity
[1]; Control: Mj-AMP1 500 μg/ml or Mj-AMP2 100 μg/ml in 10 mM sodium phosphate buffer pH 7
  Relative antifungal activity (shown as % of control activity): 100 % of control activity
[1]; Pronase E digestion, 100 μg/ml, 37° C., 16 hours
  Relative antifungal activity (shown as % of control activity): 50 % of control activity
[1]; Proteinase K digestion, 100 μg/ml, 37° C., 16 hours
  Relative antifungal activity (shown as % of control activity): 100 % of control activity
[1]; Reduction: DTT 2.5 mM, 37° C., 2 hours
  Relative antifungal activity (shown as % of control activity): < 6 % of control activity
[1]; Trypsin digestion, 100 μg/ml, 37° C., 16 hours
  Relative antifungal activity (shown as % of control activity): 75 % of control activity
[1]; chymotrypsin
  Sensitivity to protease (in words): sensitive
[1]; pH 2, 60 min
  Relative antifungal activity (shown as % of control activity): 100 % of control activity
[1]; pH 3, 60 min
  Relative antifungal activity (shown as % of control activity): 100 % of control activity
[1]; pH 10, 60 min
  Relative antifungal activity (shown as % of control activity): 100 % of control activity
[1]; pH 11, 60 min
  Relative antifungal activity (shown as % of control activity): 100 % of control activity
[1]; pronase E
  Sensitivity to protease (in words): resisted almost completely
[1]; proteinase K
  Sensitivity to protease (in words): resisted almost completely
[1]; trypsin
  Sensitivity to protease (in words): resisted almost completely
[2]
  IC50: 60 µg/mL
[3]; 48 hours of incubation
  IC50: 6 µg/mL
[3]; after 72 hours
  IC50: 12 µg/mL
[4]
  IC50: 30 µg/mL
[5]
  IC50: 15 µg/mL
[6]
  IC50: 15 µg/mL
[7]
  IC50: 6 µg/mL
[8]
  IC50: 12 µg/mL
[9]
  Disease control grading: 3 (3=trace-5% of disease on untreated plants)
[10]; with Ca/K, 5 μg/ml
  Inhibitory activity against yeast: -
[10]; with Ca/K, 50 μg/ml
  Inhibitory activity against yeast: -
[10]; with Ca/K, 500 μg/ml
  Inhibitory activity against yeast: +++
[10]; without Ca/K, 5 μg/ml
  Inhibitory activity against yeast: +
[10]; without Ca/K, 50 μg/ml
  Inhibitory activity against yeast: +++
[10]; without Ca/K, 500 μg/ml
  Inhibitory activity against yeast: +++
[11]; [15]
  IC50: 20 µg/mL
[11]; MEDIUM -Ca/K
  IC50: 6 µg/mL
[12]; [15]
  IC50: > 500 µg/mL
[12]; MEDIUM -Ca/K
  IC50: > 500 µg/mL
[13]; [15]
  IC50: > 500 µg/mL
[13]; MEDIUM -Ca/K
  IC50: > 500 µg/mL
[14]; [15]
  IC50: > 500 µg/mL
[14]; MEDIUM -Ca/K
  IC50: 100 µg/mL
